In brackets after ≈: the same amount, converted by molar mass. Like-named read-outs stand apart in the source and are kept apart here.
What was measured:
Caco-2 = conditions: human
[1] = system: human intestinal microflora; test: Biotransformation by human intestinal bacteria (fecal microflora incubation); type: in vitro ADME; conditions: for isoflavone left in the incubation media: human, 120 h, 100 µM
Protocol: Fresh human fecal samples were collected from 4 volunteers. Five grams of each were pooled together and mixed well with 30 mL BHI culture medium. The fecal suspension was centrifuged at 200 g for 5 min and supernatant was decanted and centrifuged at 5,000 g for another 30 min. The resultant precipitate was re-suspended with 10 mL BHI medium to produce intestinal micro flora solution.
As the biotransformation of drugs by human intestinal bacteria was determined in a 5 mL incubation system containing 250 μL intestinal microflora solution, 50 μL stock solution in DMSO in BHI medium. […] Zero-minute incubations served as controls. Reactions were stopped by extracting samples with 15 ml of ethanol twice. The two ethanol extractions were combined, dried and re-suspended in 80% methanol for HPLC/MS analysis.

[2] = Solubility interactions of isoflavones in fasted simulated intestinal fluid (FaSSIF); type: physicochemical; conditions: for Biochanin A saturation concentration: fasted media, 37° C.
Protocol: Isoflavones: daidzein, genistein, formononetin and Biochanin A were obtained from Indofine. Simulated intestinal fluid buffer powder mimicking a fasted state (FaSSIF) was obtained from Biorelevant SIF media, Biorelevant.com, Switzerland.
To prepare accurate concentrations of isoflavones in microtubes, stock solutions of individual isoflavones were prepared at 1 mg/mL in methanol. The amount of isoflavone designated to be held constant was provided at a concentration that well exceeded (about 20×) the saturation concentration for that isoflavone. The appropriate amount of stock was transferred to each microtube and the material was dried down in a vacuum centrifuge.
The competing isoflavone was prepared at 0, 1, 5, 10, 50, 100, 200 μg/mL (FIGS. 11 and 12) and, in the case of formononetin, 400 μg/mL (FIG. 9).
In the case of formononetin competition with Biochanin A, the amount of formononetin was held constant at 50 μg in 1 ml buffer (saturation concentration for formononetin in FaSSIF is about 2 μg/mL). The competing Biochanin A was prepared at 0, 1, 5, 10, 50, 100 and 200 μg/mL (FIG. 10).
Each tube was then reconstituted with 1 mL of FaSSIF buffer, sonicated and allowed to equilibrate with occasional agitation for 24 hours at 37° C. This produced a solution that contained saturated isoflavone concentrations mimicking mammalian intestinal conditions.
At the end of 24 hours each tube containing isoflavones and FaSSIF buffer was briefly centrifuged at 5000 rpm in a microcentrifuge held at 37° C. (2 minutes). A portion of the supernatant (400 μL) was then immediately placed in a centrifugal filter unit (UltraFree-MC-GV […]) and the sample filtered by centrifugation (8000 rpm, 5 minutes, 37° C.). Upon filtration 200 μL filtrate was immediately placed in a microtube and 200 μL methanol added to ensure that the isoflavones remained in solution. The sample was mixed and 200 μL of the mixture was transferred to injection vials provided with 200 μL polypropylene injection inserts.
The samples were analyzed by HPLC with diode array detection at 260 nm using 20 μL injections.

plasma protein = test: Plasma protein binding of absorbable aglycones; type: in vitro ADME
Excerpt: (§1) The protocol used by (Moon, Sagawa et al. 2006) was used for measuring plasma protein binding of the absorbable aglycones. Parameters have been used for PBPK simulation. Conjugates of Biochanin A, formononetin, Genistein, Daidzein and Equol are predominant components in plasma. The respective aglycones constitute less than 5% of the total concentration.

human hepatocytes = test: Metabolism of isoflavone mixtures by human hepatocytes; type: in vitro ADME
Protocol: (§2) Human liver microsomes, intestinal microsomes, and hepatocytes of human female origin were purchased from XenoTech. All chemicals were purchased from Sigma-Aldrich. […] The final DMSO in buffer or media was kept at 0.1%. Protocols supplied by XenoTech Inc., the supplier, were used for glucuronidation with microsomal incubation, and hepatocyte incubation. Samples were analyzed using LC/MS.

MC3T3 cells = test: Osteoblast differentiation of MC3T3 cells (ALP/cell number); type: cell-based; conditions: 10 μM total isoflavones, 1 week
Protocol: Effects of isoflavones on the differentiation of osteoblast in MC3T3 cells followed Ge et al., 2006 and osteoclast differentiation in Raw264.7 cells followed Garcia Palacios et al., 2005. Cell numbers were measured with CellTag from Li-Cor Biosciences. Both activities of alkaline and acid phosphatase were measured with a plate reader at 405 nm. Isoflavones were first dissolved in DMSO and stock solutions were prepared at 10 mM and the final concentration of total isoflavones in test solution was 10 μM. Osteoblast and osteoclast differentiations were quantified by measuring activities of alkaline phosphatase (ALP) and acidic phosphatase (ACP). ALP is highly expressed by the mature osteoblasts and ACP is expressed by osteoclasts. Values of integrated intensity of fluorescence from […] staining serve as a correction factor for the difference in cell numbers. Therefore, ALP/cell number and ACP/cell number ratios are used to quantify osteoblast and osteoclast activities. Confluence MC3T3 cells were treated with 10 μM of isoflavones for 1 week and then the activity of alkaline phosphatase (ALP) was measured as an indicator of differentiation. […] To examine if there were any synergistic effects, two isoflavones were mixed in a 1:9 ratio and tested in the final concentration of 10 μM. […]

Raw264.7 cells = test: Osteoclast differentiation in Raw264.7 cells (ACP/cell number); type: cell-based; conditions: 10 μM total isoflavones, MCSF and RANKL stimulated
Protocol: Effects of isoflavones on the differentiation of osteoblast in MC3T3 cells followed Ge et al., 2006 and osteoclast differentiation in Raw264.7 cells followed Garcia Palacios et al., 2005. Cell numbers were measured with CellTag from Li-Cor Biosciences. Both activities of alkaline and acid phosphatase were measured with a plate reader at 405 nm. Isoflavones were first dissolved in DMSO and stock solutions were prepared at 10 mM and the final concentration of total isoflavones in test solution was 10 μM. Osteoblast and osteoclast differentiations were quantified by measuring activities of alkaline phosphatase (ALP) and acidic phosphatase (ACP). ALP is highly expressed by the mature osteoblasts and ACP is expressed by osteoclasts. Values of integrated intensity of fluorescence from […] staining serve as a correction factor for the difference in cell numbers. Therefore, ALP/cell number and ACP/cell number ratios are used to quantify osteoblast and osteoclast activities. Raw246.7 cells were treated with MCSF and RANKL to stimulate the differentiation of osteoclasts. Isoflavones were added at the final concentration of 10 μM to examine their ability to inhibit differentiation.

[3] = system: human intestinal microsomes; test: Metabolism of isoflavone mixtures by human intestinal microsomes; type: in vitro ADME
Protocol: as §2

[4] = CaCo-2 permeability of isoflavones in a Red clover extract; conditions: human
in vitro = conditions: human, Caco-2
[5] = Plasma protein binding of absorbable aglycones; type: in vitro ADME
Excerpt: as §1

Row | SMILES | Papp [4] [nm/s] | rate of metabolism by human hepatocytes (human hepatocytes; female, human) [ml/min/million cells] | metabolism by human intestinal microsomes ([3]; female, human) [ml/min/mg protein] | bio-transformation products formed by intestinal microflora [1] | osteoclast differentiation (Raw264.7 cells) | fraction unbound [5] | also measured
1 | COc1ccc(-c2coc3cc(O)cc(O)c3c2=O)cc1 [Biochanin A] | – | – | – | dihydrobiochanin A, genistein, and dihydrogenistein | highest inhibition | – | Mean Peff (Caco-2): 108 nm/s; Biochanin A saturation concentration ([2]; in the presence of 200 μg/mL daidzein): about 8.7 μg/mL; Biochanin A saturation concentration ([2]; in the presence of 200 μg/mL genistein): about 24.2 μg/mL; Biochanin A saturation concentration ([2]; in the presence of 400 μg/mL formononetin): about 4.5 μg/mL; Plasma protein binding (plasma protein): over 97%; rate of metabolism by human hepatocytes (human hepatocytes): 8.88E-6 ml/min/million cells; ALP activity (osteoblast differentiation) (MC3T3 cells): highest ALP activity; metabolism by human intestinal microsomes [3]: 5.41E-4 ml/min/mg protein
2 | O=c1c(-c2ccc(O)cc2)coc2cc(O)ccc12 [Daidzein] | – | 4.07E-6 | 6.32E-5 | – | stimulating osteoclast differentiation | ~0.2 | Papp (in vitro): 266 nm/s
3 | COc1ccc(-c2coc3cc(O[C@@H]4O[C@H](CO)[C@@H](O)[C@H](O)[C@H]4O)cc(O)c3c2=O)cc1 [Biochanin A glucoside] | – | – | – | – | – | – | Mean Peff (Caco-2): 0.164 nm/s
4 | O=c1c(-c2ccc(O)cc2)coc2cc(O[C@@H]3O[C@H](CO)[C@@H](O)[C@H](O)[C@H]3O)ccc12 [Daidzin] | 5.36 | – | – | – | – | – | –
5 | O=c1c(-c2ccc(O)cc2)coc2cc(O)cc(O)c12 [Genistein] | 275 | – | – | – | stimulating osteoclast differentiation | < 0.03 | bio-transformation products formed by intestinal microflora ([1]; 100 μM, anaerobic, 37° C., up to 120 h): dihydrogenistein; rate of metabolism by human hepatocytes (human hepatocytes; isoflavone mixtures, female origin): 5.14E-6 ml/min/million cells; metabolism by human intestinal microsomes ([3]; isoflavone mixtures, glucuronidation, female origin): 4.28E-4 ml/min/mg protein
6 | Oc1ccc([C@H]2COc3cc(O)ccc3C2)cc1 [Equol] | – | 1.21E-5 | 1.07E-4 | most resistant to bio-transformation | – | < 0.03 | isoflavone left in the incubation media [1]: over 60%
7 | COc1ccc(-c2coc3cc(O)ccc3c2=O)cc1 [Formononetin] | 220 | 3.45E-6 | 7.31E-5 | dihydroformononetin, dihydrodaidzein, daidzein, and equol | – | < 0.03 | isoflavone left in the incubation media [1]: over 20%; solubility thermodynamic at 24 h ([2]; 37 °C, fassif, thermodynamic from solid): ~2 µg/mL (≈ 7.46 µM)

Further lines, with some results ahead:

Row | Papp [4] [nm/s] | rate of metabolism by human hepatocytes (human hepatocytes; female, human) [ml/min/million cells] | metabolism by human intestinal microsomes ([3]; female, human) [ml/min/mg protein] | SMILES | bio-transformation products formed by intestinal microflora [1] | osteoclast differentiation (Raw264.7 cells) | fraction unbound [5] | also measured
8 | 1.22 | – | – | COc1ccc(-c2coc3cc(O[C@@H]4O[C@H](CO)[C@@H](O)[C@H](O)[C@H]4O)ccc3c2=O)cc1 [Ononin] | – | – | – | –
9 | 3.46 | – | – | O=c1c(-c2ccc(O)cc2)coc2cc(O[C@@H]3O[C@H](CO)[C@@H](O)[C@H](O)[C@H]3O)cc(O)c12 [Genistin] | – | – | – | –

— US10307451B2, “Phytoestrogen product of red clover and pharmaceutical uses thereof” (Sinoveda Canada Inc., priority 2010, dated 2019)
